Laboratory results: article PMC6176321, “Efficient Synthesis of Glutamate Peptide-Estradiol Conjugate for Imaging Estrogen Receptor-Positive Diseases” (BioMed Research International, 2018)
Ends that are not written are not given here.

What was measured:
[1] = test system: MCF7 (ER+) breast cancer cells; assay: In vitro cellular uptake assay (sensitivity); type: cell-based; settings: 50,000 cells/well, 4 uCi/80uL/well, 4ug/well, average of three measurements
Protocol: (§1) In vitro cellular uptake studies of ^68Ga-GAP-EDL in breast tumor cells were performed. Breast cancer cell lines with high (MCF7; ER+) and low (SK-BR-3; ER-) estrogen receptor densities were used to determine the sensitivity and specificity for the cellular uptake assay. Briefly, for sensitivity assay, breast tumor cells (50,000 cells/well, 12 wells) were added with ^68GaCl3, ^68Ga-GAP, and ^68Ga-GAP-EDL (4 uCi/80uL/well, 4ug/well). The cells were incubated for 0.5-2 hrs. […] After incubation, the supernatant was collected. The cells were washed twice with ice cold PBS (1 ml) and trypsin EDTA (0.1 ml). After 2 min, the cells were collected. The wells were washed twice with cold PBS (0.5ml). The total volume of cell supernatant and the total volume containing cells were transferred to test tube to count the activity separately. Each piece of data represents an average of three measurements. Percentage of uptake (%)=cell activity/(cell supernatant+ cell activity)∗100% was calculated.

[2] = test system: SK-BR-3 (ER-) breast cancer cells; assay: In vitro cellular uptake assay (sensitivity); type: cell-based; settings: 50,000 cells/well, 4 uCi/80uL/well, 4ug/well, average of three measurements
Protocol: as §1

[3] = Micro-PET/CT imaging, tumor-to-muscle count density ratio; parameters: species or system mice; settings: mouse, in vivo, 0.14 mg per 100uCi (0.2 mL) per mouse, 0.14mg per 100μCi, iv, n=2 per compound
Protocol: For PET imaging studies, athymic nude mice (n=2 per compound) inoculated with MCF-7 cells (s.c. 10^6 cells/mouse) at the left hind legs. When tumor reached 0.7cm, the tumor-bearing mice were anesthetized with 2% isoflurane on prone position. ^68Ga chloride (5mCi) was obtained by eluting a ^68Ge/^68Ga generator (20mCi size from Eckert Ziegler, Germany) with HCL (0.1N, 1.5 mL). Labeling GAP (1 mg) and GAP-EDL (1mg) was achieved by dissolving both compounds in sodium acetate (0.4 mL, 0.1N, pH 5.4), followed by adding ^68Ga chloride (1mCi, 0.3mL). Both compounds were sat at 37°C for 20 min. For animal imaging studies, the concentrations were diluted to 1.5mL/mg by adding saline (0.9%). Each mouse was administered with ^68Ga-GAP and ^68Ga-GAP-EDL (0.14mg per 100μCi, 0.2 mL, iv). ^68Ga-GAP and ^68Ga-GAP-EDL imaging studies were performed with a Siemens Inveon micro-PET/CT scanner (Siemens Medical Systems, Hoffman Estates, IL). Three serial 30-minute trans-axial PET images were obtained. All corrections for attenuation, scatter, and dead time were applied to generate quantifiable images. Regions of interests were then drawn on the tumor tissue and muscle regions and time activity curves were generated, the counts per pixel were used to determine tumor tissue-to-muscle tissue count density ratios.

Compound	Percentage of uptake ([1]; MCF-7, 30min incubation) [%]	Percentage of uptake ([1]; MCF-7, 1h incubation) [%]	Percentage of uptake ([1]; MCF-7, 2h incubation) [%]	Percentage of uptake ([2]; SK-BR-3, 30min incubation) [%]	Percentage of uptake ([2]; SK-BR-3, 1h incubation) [%]	Percentage of uptake ([2]; SK-BR-3, 2h incubation) [%]	tissue to tissue ratio at 0.5 h ([3]; 30 min)	tissue to tissue ratio at 1 h ([3]; 60 min)	tissue to tissue ratio at 1.5 h ([3]; 90 min)
[Cl][68Ga]([Cl])[Cl] [^68GaCl3]	1.35±0.35	1.79±0.28	1.63±0.33	1.74±0.21	1.80±0.20	2.21±0.11	–	–	–
EEEEEE [^68Ga-GAP, metal not drawn]	2.20±0.73	3.20±1.17	2.43±0.71	1.84±0.27	3.11±1.29	2.45±0.21	1.1 ± 0.02	1.2 ± 0.01	1.2 ± 0.02
